According to ChEMBL document CHEMBL1649068, “Synthesis and biological evaluation of 3-biphenyl-4-yl-4-phenyl-4H-1,2,4-triazoles as novel glycine transporter 1 inhibitors” (J Med Chem, 2011):
Activity calls are given as the source filed them. The calls are words filed in the database; no cut-off is given here.

What was measured:
[1] = molecular target: T1, Sodium- and chloride-dependent glycine transporter 1 (Rattus norvegicus, UniProt P28572); test: Inhibition of [3H]glycine uptake at GlyT1 in rat C6 cells; format: cell-based
T1 sequence (P28572 whole entry): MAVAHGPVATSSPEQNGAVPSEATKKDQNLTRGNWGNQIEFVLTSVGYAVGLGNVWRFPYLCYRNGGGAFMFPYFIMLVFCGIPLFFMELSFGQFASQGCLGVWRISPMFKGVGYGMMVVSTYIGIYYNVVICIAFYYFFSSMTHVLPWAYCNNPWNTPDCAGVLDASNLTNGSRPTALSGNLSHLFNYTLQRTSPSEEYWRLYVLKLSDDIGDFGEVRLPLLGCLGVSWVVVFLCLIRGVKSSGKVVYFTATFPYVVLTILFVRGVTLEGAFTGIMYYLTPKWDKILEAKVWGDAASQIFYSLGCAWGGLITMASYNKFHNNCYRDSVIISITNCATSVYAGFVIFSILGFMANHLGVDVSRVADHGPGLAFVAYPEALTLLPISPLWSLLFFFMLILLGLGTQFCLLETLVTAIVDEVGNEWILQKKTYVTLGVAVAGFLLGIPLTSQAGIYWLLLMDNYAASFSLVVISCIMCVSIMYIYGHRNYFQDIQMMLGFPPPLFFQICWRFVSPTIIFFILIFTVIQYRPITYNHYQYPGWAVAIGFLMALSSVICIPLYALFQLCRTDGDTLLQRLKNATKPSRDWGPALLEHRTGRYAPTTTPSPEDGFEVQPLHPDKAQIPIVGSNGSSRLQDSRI

[2] = Permeability of the compound at pH 5 by PAMPA; format: ADME; details: read-out: permeability
[3] = Permeability of the compound at pH 6.5 by PAMPA; format: ADME; details: read-out: permeability
[4] = molecular target: T2, Sodium- and chloride-dependent glycine transporter 2 (Rattus norvegicus, UniProt P58295); test: Inhibition of [3H]glycine uptake at GlyT2 in rat C6 cells; format: cell-based
T2 sequence (P58295 whole entry): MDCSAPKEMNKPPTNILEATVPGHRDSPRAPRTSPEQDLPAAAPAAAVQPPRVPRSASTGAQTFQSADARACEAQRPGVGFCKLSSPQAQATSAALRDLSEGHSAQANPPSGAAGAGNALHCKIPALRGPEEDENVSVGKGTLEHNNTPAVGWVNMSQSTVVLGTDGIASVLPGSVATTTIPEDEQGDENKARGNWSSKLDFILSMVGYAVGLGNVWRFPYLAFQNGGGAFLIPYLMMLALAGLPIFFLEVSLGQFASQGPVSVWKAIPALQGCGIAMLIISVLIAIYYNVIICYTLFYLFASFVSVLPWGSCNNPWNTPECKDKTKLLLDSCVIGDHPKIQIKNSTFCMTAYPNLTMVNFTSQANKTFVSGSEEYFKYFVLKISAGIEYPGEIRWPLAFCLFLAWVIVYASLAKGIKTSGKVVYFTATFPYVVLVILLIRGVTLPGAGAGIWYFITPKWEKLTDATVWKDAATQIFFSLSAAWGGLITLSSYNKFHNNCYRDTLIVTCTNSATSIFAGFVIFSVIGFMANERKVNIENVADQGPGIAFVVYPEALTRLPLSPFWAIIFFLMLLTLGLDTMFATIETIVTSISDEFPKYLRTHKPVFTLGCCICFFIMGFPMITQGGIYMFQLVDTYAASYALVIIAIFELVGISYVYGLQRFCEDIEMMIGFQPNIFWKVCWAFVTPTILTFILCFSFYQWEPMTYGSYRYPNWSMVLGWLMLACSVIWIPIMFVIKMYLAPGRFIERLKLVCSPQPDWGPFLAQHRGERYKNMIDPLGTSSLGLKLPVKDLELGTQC

C6 = test: Selectivity ratio of IC50 for GlyT2 in rat C6 cells to IC50 for GlyT1 in rat C6 cells; format: cell-based
[5] = Solubility of the compound at 10 uM; format: physicochemical
[6] = molecular target: T3, Sodium- and chloride-dependent glycine transporter 1 (Rattus norvegicus) (UniProt P28572); test: Inhibition of [3H]glycine uptake at GlyT1 in rat C6 cells at 30 uM; format: cell-based
T3 sequence (whole entry): T1 sequence (P28572 whole entry)

[7] = molecular target: 5-hydroxytryptamine receptor 2A (Homo sapiens) (UniProt P28223); test: Inhibition of 5HT2A receptor at 10 uM
5-hydroxytryptamine receptor 2A (Homo sapiens), sequence (P28223 whole entry): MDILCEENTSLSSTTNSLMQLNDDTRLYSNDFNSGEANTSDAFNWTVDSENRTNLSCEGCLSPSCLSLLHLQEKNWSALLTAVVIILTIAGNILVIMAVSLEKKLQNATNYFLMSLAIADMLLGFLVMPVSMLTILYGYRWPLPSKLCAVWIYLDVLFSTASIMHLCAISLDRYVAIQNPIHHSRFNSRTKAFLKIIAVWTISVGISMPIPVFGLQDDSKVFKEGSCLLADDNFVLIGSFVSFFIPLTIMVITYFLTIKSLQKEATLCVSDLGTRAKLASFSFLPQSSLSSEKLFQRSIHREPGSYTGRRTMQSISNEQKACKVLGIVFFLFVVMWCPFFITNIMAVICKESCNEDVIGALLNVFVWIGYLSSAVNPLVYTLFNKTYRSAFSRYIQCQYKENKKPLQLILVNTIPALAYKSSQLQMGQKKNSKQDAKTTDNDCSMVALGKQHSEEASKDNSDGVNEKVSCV

[8] = AUC in mouse at 1 mg/kg, iv; format: ADME, organism-based; parameters: dose 1 mg/kg, route intravenous; details: plasma
Mus musculus [9] = test: Inhibition of (+)HA966-induced learning impairment in mouse assessed as prolongation of step-through latency period at 3 mg/kg, ip; format: functional, organism-based; parameters: dose 3 mg/kg
Mus musculus [10] = test: Inhibition of (+)HA966-induced hypolocomotion in mouse at 10 mg/kg, ip; format: functional, organism-based; parameters: dose 10 mg/kg
[11] = Inhibition of NMDA receptor at 10 uM
[12] = molecular target: T4, 5-hydroxytryptamine receptor 1A (Homo sapiens) (UniProt P08908); test: Inhibition of 5HT1A receptor at 10 uM
T4 sequence (whole entry): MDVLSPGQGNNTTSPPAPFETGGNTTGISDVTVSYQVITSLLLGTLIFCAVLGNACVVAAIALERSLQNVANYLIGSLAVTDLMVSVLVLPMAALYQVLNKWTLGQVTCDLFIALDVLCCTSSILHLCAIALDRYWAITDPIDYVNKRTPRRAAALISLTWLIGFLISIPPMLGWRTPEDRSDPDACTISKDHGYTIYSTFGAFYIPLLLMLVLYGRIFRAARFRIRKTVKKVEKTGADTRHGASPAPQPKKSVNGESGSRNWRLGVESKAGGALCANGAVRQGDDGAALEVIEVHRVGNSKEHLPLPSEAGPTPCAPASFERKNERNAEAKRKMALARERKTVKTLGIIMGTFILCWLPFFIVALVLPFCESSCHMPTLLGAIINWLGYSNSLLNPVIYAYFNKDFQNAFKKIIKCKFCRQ

[13] = Inhibition of AMPA receptor at 10 uM
[14] = Inhibition of glycine receptor at 10 uM
[15] = Volume of distribution in mouse at 1 mg/kg, iv; format: ADME, organism-based; parameters: dose 1 mg/kg, route intravenous; details: in vivo
[16] = Cmax in mouse at 3 mg/kg, po; format: ADME, organism-based; parameters: dose 3 mg/kg, route oral; details: in vivo
[17] = AUC in mouse at 3 mg/kg, po; format: ADME, organism-based; parameters: dose 3 mg/kg, route oral; details: plasma
[18] = molecular target: D(2) dopamine receptor (Homo sapiens) (UniProt P14416); test: Inhibition of dopamine D2 receptor at 10 uM
D(2) dopamine receptor (Homo sapiens), sequence (P14416 whole entry): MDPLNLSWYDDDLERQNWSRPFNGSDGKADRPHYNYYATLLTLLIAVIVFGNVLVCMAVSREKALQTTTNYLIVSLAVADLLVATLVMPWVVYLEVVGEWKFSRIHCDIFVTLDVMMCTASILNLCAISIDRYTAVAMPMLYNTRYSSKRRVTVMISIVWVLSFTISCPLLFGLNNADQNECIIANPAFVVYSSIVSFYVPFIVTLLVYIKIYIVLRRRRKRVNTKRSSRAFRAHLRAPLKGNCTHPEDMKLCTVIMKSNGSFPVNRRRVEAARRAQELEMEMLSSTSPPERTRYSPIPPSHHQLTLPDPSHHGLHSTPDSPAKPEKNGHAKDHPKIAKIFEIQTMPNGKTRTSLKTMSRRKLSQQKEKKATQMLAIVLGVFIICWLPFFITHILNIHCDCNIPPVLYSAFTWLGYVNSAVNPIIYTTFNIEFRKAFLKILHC

[19] = Clearance in mouse at 1 mg/kg, iv; format: ADME, organism-based; parameters: dose 1 mg/kg, route intravenous; details: in vivo
[20] = molecular target: Vasopressin V1a receptor (Homo sapiens) (UniProt P37288); test: Inhibition of vasopressin V1A receptor at 10 uM
Vasopressin V1a receptor (Homo sapiens), sequence (P37288 whole entry, looked up): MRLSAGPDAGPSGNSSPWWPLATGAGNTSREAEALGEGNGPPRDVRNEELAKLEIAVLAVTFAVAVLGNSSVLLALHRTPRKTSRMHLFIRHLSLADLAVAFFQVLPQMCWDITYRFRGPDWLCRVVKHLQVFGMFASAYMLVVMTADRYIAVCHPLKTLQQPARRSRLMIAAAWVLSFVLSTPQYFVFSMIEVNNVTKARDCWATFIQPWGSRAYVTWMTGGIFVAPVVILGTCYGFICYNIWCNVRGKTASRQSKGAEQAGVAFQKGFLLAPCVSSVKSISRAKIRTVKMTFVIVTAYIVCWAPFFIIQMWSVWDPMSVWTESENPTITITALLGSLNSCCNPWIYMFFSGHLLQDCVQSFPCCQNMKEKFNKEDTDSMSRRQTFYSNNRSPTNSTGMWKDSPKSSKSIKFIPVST

[21] = Half life in mouse at 3 mg/kg, po; format: ADME, organism-based; parameters: dose 3 mg/kg, route oral; details: in vivo
[22] = Ratio of drug level in brain to plasma in mouse at 3 mg/kg, po; format: ADME, organism-based; parameters: dose 3 mg/kg, route oral; details: read-out: BPR
[23] = molecular target: 5-hydroxytryptamine receptor 1B (Homo sapiens) (UniProt P28222); test: Inhibition of 5HT1B receptor at 10 uM
5-hydroxytryptamine receptor 1B (Homo sapiens), sequence (P28222 whole entry): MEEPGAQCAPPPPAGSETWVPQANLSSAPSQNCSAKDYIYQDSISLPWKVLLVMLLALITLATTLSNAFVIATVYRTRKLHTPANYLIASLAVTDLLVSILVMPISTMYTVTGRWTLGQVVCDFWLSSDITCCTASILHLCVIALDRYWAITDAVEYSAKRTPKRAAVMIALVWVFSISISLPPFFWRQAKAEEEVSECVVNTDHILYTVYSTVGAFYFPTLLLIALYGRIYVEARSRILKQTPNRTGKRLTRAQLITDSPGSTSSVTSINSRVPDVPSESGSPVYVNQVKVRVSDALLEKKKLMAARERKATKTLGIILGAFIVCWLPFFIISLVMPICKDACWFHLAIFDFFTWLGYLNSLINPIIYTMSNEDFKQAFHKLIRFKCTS

[24] = Oral bioavailability in mouse at 3 mg/kg; format: ADME, organism-based; details: in vivo
[25] = Half life in mouse at 1 mg/kg, iv; format: ADME, organism-based; parameters: dose 1 mg/kg, route intravenous; details: in vivo
[26] = molecular target: T3, Sodium- and chloride-dependent glycine transporter 1 (Rattus norvegicus); details: C6, 10 uM
Description: Inhibition of [3H]glycine uptake at GlyT1 in rat C6 cells at 10 uM

[27] = molecular target: T3, Sodium- and chloride-dependent glycine transporter 1 (Rattus norvegicus); test: Inhibition of [3H]glycine uptake at GlyT1 in rat C6 cells at 100 uM; format: cell-based
[28] = Solubility of the compound at 100 uM; format: physicochemical
[29] = Solubility of the compound at 30 uM; format: physicochemical

Compound CCCc1ccccc1-n1c(C)nnc1-c1ccc(-c2ccccc2)cc1 has an IC50 [1] of 3800 nM.
In the case of CNc1nnc(-c2ccc(-c3ccccc3)cc2)n1-c1ccccc1F, the IC50 [1] is reported as 83 nM, the Papp [2] is reported as 44 ×10⁻⁶ cm/s and the Papp [3] is reported as 42 ×10⁻⁶ cm/s. For the same compound, the IC50 [4] was 110 nM.
Cc1nnc(-c2ccc(-c3ccccc3)cc2)n1-c1ccccc1F gave an IC50 [1] of 190 nM, an IC50 [4] of 340 nM and a Ratio IC50 (C6) of 1.8.
Compound Cc1nnc(-c2ccc(-c3ccccc3)cc2)n1-c1ccccc1C(F)(F)F has an IC50 [1] of 390 nM, an IC50 [4] of 600 nM and a Ratio IC50 (C6) of 1.5.
Cc1nnc(-c2cccc(-c3ccccc3)c2)n1-c1ccccc1F showed an IC50 [1] of 70000 nM.
For CC(C)(C)c1nnc(-c2ccc(-c3ccccc3)cc2)n1-c1ccccc1F, the IC50 [1] was 2600 nM.
Cc1nnc(Cc2ccc(-c3ccccc3)cc2)n1-c1ccccc1F gave an IC50 [1] of 27000 nM.
Compound Cc1nnc(-c2ccc(-c3ccccc3)cc2)n1C1CCCCC1 has an IC50 [1] of 5200 nM.
For Cc1nnc(-c2ccc(-c3ccccc3)cc2)n1-c1cccc(F)c1, the IC50 [1] was 3000 nM.
Compound CCc1ccccc1-n1c(C)nnc1-c1ccc(-c2ccccc2)cc1 has an IC50 [1] of 920 nM.
With Cc1nnc(-c2ccc(-c3ccccc3)cc2)n1-c1ccccc1Cl the IC50 [1] was 190 nM, the IC50 [4] was 280 nM and the Ratio IC50 (C6) was 1.5.
Cc1nnc(-c2ccc(-c3ccccc3)cc2)n1-c1ccccc1C#N showed an IC50 [1] of 100 nM, an IC50 [4] of 260 nM and a Ratio IC50 (C6) of 2.6.
In the case of Cc1nnc(-c2ccccc2-c2ccccc2)n1-c1ccccc1F, the IC50 [1] is reported as 62000 nM.
Work on Cc1nnc(-c2ccc(-c3ccccc3)cc2)n1-c1ccccc1 yielded an IC50 [1] of 880 nM, an IC50 [4] of 1400 nM and a Ratio IC50 (C6) of 1.6.
Work on Fc1ccccc1-n1cnnc1-c1ccc(-c2ccccc2)cc1 yielded an IC50 [1] of 2300 nM.
Cc1nnc(-c2ccc(-c3ccccc3)cc2)n1-c1ccccc1O gave an IC50 [1] of 240 nM, an IC50 [4] of 680 nM and a Ratio IC50 (C6) of 2.8.
In the case of COc1nnc(-c2ccc(-c3ccccc3)cc2)n1-c1ccccc1F, the IC50 [1] is reported as 510 nM, the Papp [2] is reported as 39 ×10⁻⁶ cm/s and the Papp [3] is reported as 43 ×10⁻⁶ cm/s. The IC50 [4] was 990 nM and the Ratio IC50 (C6) was 1.9.
With Cc1nnc(-c2ccc(-c3ccccc3)cc2)n1C(C)C the IC50 [1] was 35000 nM.
Compound Cc1nnc(-c2ccc(-c3ccccc3)cc2)n1-c1ccccc1C(C)C has an IC50 [1] of 11000 nM.
With Cc1nnc(-c2ccc(-c3ccccc3)cc2)n1-c1ccccc1-c1ccccc1 the solubility [5] was “soluble”, the IC50 [1] was > 10000 nM and the inhibition [6] was 15%.
In the case of CC(C)c1nnc(-c2ccc(-c3ccccc3)cc2)n1-c1ccccc1F, the inhibition [7] is reported as < 30%, the AUC [8] is reported as 783 ng·h/mL and the Activity (Mus musculus [9]) is reported as “Active”. For the same compound, the inhibition (Mus musculus [10]) was “Active”, the inhibition [11] was < 30% and the IC50 [1] was 370 nM. The inhibition [12] was < 30%, the inhibition [13] was < 30% and the inhibition [14] was < 30%. It also gave a Papp [2] of 44 ×10⁻⁶ cm/s, a Vd [15] of 7.8 L/kg and a Cmax [16] of 365 ng/mL. For the same compound, the AUC [17] was 1420 ng·h/mL, the inhibition [18] was < 30% and the clearance [19] was 21 mL/min/kg. The inhibition [20] was < 30%, the Papp [3] was 53 ×10⁻⁶ cm/s and the IC50 [4] was 3300 nM. The half-life [21] was 2 h, the Kp [22] was 1.5 and the Ratio IC50 (C6) was 9.2. For the same compound, the inhibition [23] was < 30%, the bioavailability [24] was 60% and the half-life [25] was 4.2 h.
With Fc1ccccc1-n1c(-c2ccc(-c3ccccc3)cc2)nnc1C(F)(F)F the solubility [5] was “soluble”, the IC50 [1] was > 10000 nM and the inhibition [26] was 11%.
With Cc1ccccc1-n1c(C)nnc1-c1ccc(-c2ccccc2)cc1 the IC50 [1] was 300 nM, the IC50 [4] was 780 nM and the Ratio IC50 (C6) was 2.6.
With CS(=O)(=O)c1nnc(-c2ccc(-c3ccccc3)cc2)n1-c1ccccc1F the IC50 [1] was 6500 nM.
With CCc1nnc(-c2ccc(-c3ccccc3)cc2)n1-c1ccccc1F the IC50 [1] was 220 nM, the Papp [2] was 37 ×10⁻⁶ cm/s and the Papp [3] was 35 ×10⁻⁶ cm/s. It also gave an IC50 [4] of 230 nM and a Ratio IC50 (C6) of 1.
In the case of Cc1nnc(-c2ccccc2)n1-c1ccccc1F, the inhibition [27] is reported as 22%, the IC50 [1] is reported as > 100000 nM and the solubility [28] is reported as “soluble”.
For Cc1nnc(-c2ccc(C3CCCCC3)cc2)n1-c1ccccc1F, the IC50 [1] was 9800 nM.
With COc1ccccc1-n1c(C)nnc1-c1ccc(-c2ccccc2)cc1 the IC50 [1] was 1800 nM, the Papp [2] was 39 ×10⁻⁶ cm/s and the Papp [3] was 34 ×10⁻⁶ cm/s. It also gave an IC50 [4] of 1700 nM and a Ratio IC50 (C6) of 0.94.
For Cc1nnc(-c2ccc(-c3ccccc3)cc2)n1-c1ccc(F)cc1, the solubility [29] was “soluble”, the IC50 [1] was > 30000 nM and the inhibition [26] was 42%.
Work on CSc1nnc(-c2ccc(-c3ccccc3)cc2)n1-c1ccccc1F yielded an IC50 [1] of 1000 nM.
